Assays:
Test in all cases: drug sensitivity score (DSS) (DSS (dimensionless)); higher = more sensitive (stronger drug response)
[1] = test system: FIMM-PDC3 (patient-derived ovarian cancer cells); settings: genetic perturbation: none (patient-derived cell culture)
How it was run: (§1)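 Cells, either patient-derived cultures or ovarian cancer cell lines given 100 ng/ml doxycycline for no less than three days to induce shRNA, went into 384-well plates at 1 000 – 1 500 per well over drugs pre-plated in five concentrations across a 10,000-fold range. The plates were held for three days at 37 °C with 5.0 % CO2. Cell viability was then taken from CellTiter-Glo luminescence on a PHERAstar FS. For each drug, a drug sensitivity score from its dose-response curve was obtained by a method described earlier.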

[2] = test system: FIMM-PDC2 (patient-derived ovarian cancer cells); settings: genetic perturbation: none (patient-derived cell culture)
How it was run: as §1

[3] = test system: JHOS2
How it was run: as §1

[4] = test system: FIMM-PDC6 (patient-derived ovarian cancer cells); settings: genetic perturbation: none (patient-derived cell culture)
How it was run: as §1

[5] = test system: OVSAHO
How it was run: as §1

[6] = test system: FIMM-PDC7 (patient-derived ovarian cancer cells); settings: genetic perturbation: none (patient-derived cell culture)
How it was run: as §1

[7] = test system: Kuramochi
How it was run: as §1

[8] = test system: FIMM-PDC1 (patient-derived ovarian cancer cells); settings: genetic perturbation: none (patient-derived cell culture)
How it was run: as §1

[9] = test system: FIMM-PDC5 (patient-derived ovarian cancer cells); settings: genetic perturbation: none (patient-derived cell culture)
How it was run: as §1

[10] = test system: FIMM-PDC4 (patient-derived ovarian cancer cells); settings: genetic perturbation: none (patient-derived cell culture)
How it was run: as §1

[11] = genetic perturbation: DOX-induced PTK7 shRNA knockdown
[12] = genetic perturbation: DOX-induced control shRNA

CC(C)[C@@H](CS(=O)(=O)C(C)C)N1C(=O)[C@@](C)(CC(=O)O)C[C@H](c2cccc(Cl)c2)[C@H]1c1ccc(Cl)cc1 [AMG-232]
drug sensitivity score [1]: < 0
drug sensitivity score [2]: < 0
drug sensitivity score [3, 11]: < 0
drug sensitivity score [3, 12]: < 0
drug sensitivity score [4]: 14.2
drug sensitivity score [5, 11]: < 0
drug sensitivity score [5, 12]: < 0
drug sensitivity score [6]: 15
drug sensitivity score [7, 11]: < 0
drug sensitivity score [7, 12]: < 0
drug sensitivity score [8]: < 0
drug sensitivity score [9]: 20.3
drug sensitivity score [10]: 7.1

CN[C@@H](C)C(=O)N[C@H]1CN(C(=O)CC(C)C)CC[C@H]2CC[C@@H](C(=O)NC(c3ccccc3)c3ccccc3)N2C1=O [AT-406]
drug sensitivity score [1]: 10.8
drug sensitivity score [2]: 10.5
drug sensitivity score [3, 11]: 16.5
drug sensitivity score [3, 12]: 10.2
drug sensitivity score [4]: 5.3
drug sensitivity score [5, 11]: 4.3
drug sensitivity score [5, 12]: < 0
drug sensitivity score [6]: 0.6
drug sensitivity score [7, 11]: 1.1
drug sensitivity score [7, 12]: 0.3
drug sensitivity score [8]: 7.9
drug sensitivity score [9]: 1.5
drug sensitivity score [10]: 0.9

C=CCn1c(=O)c2cnc(Nc3ccc(N4CCN(C)CC4)cc3)nc2n1-c1cccc(C(C)(C)O)n1 [AZD1775]
drug sensitivity score [1]: 17
drug sensitivity score [2]: 12.9
drug sensitivity score [3, 11]: 8.6
drug sensitivity score [3, 12]: 8.3
drug sensitivity score [4]: 4
drug sensitivity score [5, 11]: 16.3
drug sensitivity score [5, 12]: 9.6
drug sensitivity score [6]: 8.8
drug sensitivity score [7, 11]: 10.3
drug sensitivity score [7, 12]: 9.9
drug sensitivity score [8]: 21.6
drug sensitivity score [9]: 19
drug sensitivity score [10]: 10.4

C[C@@H]1COCCN1c1cc(C2([S@](C)(=N)=O)CC2)nc(-c2cc[nH]c3nccc2-3)n1 [AZD6738]
drug sensitivity score [1]: 13
drug sensitivity score [2]: 9.5
drug sensitivity score [3, 11]: 6
drug sensitivity score [3, 12]: 3.6
drug sensitivity score [4]: 11
drug sensitivity score [5, 11]: 6.2
drug sensitivity score [5, 12]: 5.5
drug sensitivity score [6]: 8.6
drug sensitivity score [7, 11]: 6.5
drug sensitivity score [7, 12]: 4.5
drug sensitivity score [8]: 12.7
drug sensitivity score [9]: 10.4
drug sensitivity score [10]: 8.7

O=C1CCc2c(Oc3ccc4c(c3)[C@@H]3[C@H](O4)[C@H]3c3nc4cc(C(F)(F)F)ccc4[nH]3)ccnc2N1 [BGB-283]
drug sensitivity score [1]: 4.1
drug sensitivity score [2]: 3.4
drug sensitivity score [3, 11]: 1.8
drug sensitivity score [3, 12]: 6.4
drug sensitivity score [4]: 7.3
drug sensitivity score [5, 11]: 2.4
drug sensitivity score [5, 12]: 4
drug sensitivity score [6]: 5.8
drug sensitivity score [7, 11]: 3.6
drug sensitivity score [7, 12]: 1.7
drug sensitivity score [8]: 1.05
drug sensitivity score [9]: 10.4
drug sensitivity score [10]: 7.7

CO[C@H]1CC[C@H](N2C(=O)CNc3ncc(-c4ccc(C(C)(C)O)nc4)nc32)CC1 [CC-223]
drug sensitivity score [1]: 3.5
drug sensitivity score [2]: 4.7
drug sensitivity score [3, 11]: 3.3
drug sensitivity score [3, 12]: 3.3
drug sensitivity score [4]: 5.3
drug sensitivity score [5, 11]: 6.6
drug sensitivity score [5, 12]: 4.9
drug sensitivity score [6]: 9.5
drug sensitivity score [7, 11]: 5.1
drug sensitivity score [7, 12]: 4.6
drug sensitivity score [8]: 3.2
drug sensitivity score [9]: 10.3
drug sensitivity score [10]: 5.9

CC1(C)OCCn2c1nc1c(N3CCOCC3)nc(-c3cnc(N)nc3)nc12 [GDC-0084]
drug sensitivity score [1]: 7.9
drug sensitivity score [2]: 10.3
drug sensitivity score [3, 11]: 7
drug sensitivity score [3, 12]: 8.5
drug sensitivity score [4]: 13.3
drug sensitivity score [5, 11]: 10.2
drug sensitivity score [5, 12]: 9.7
drug sensitivity score [6]: 14.2
drug sensitivity score [7, 11]: 10.2
drug sensitivity score [7, 12]: 6.3
drug sensitivity score [8]: 7.65
drug sensitivity score [9]: 17
drug sensitivity score [10]: 13.1

CN[C@@H]1C[C@H]2O[C@@](C)([C@@H]1OC)n1c3ccccc3c3c4c(c5c6ccccc6n2c5c31)C(=O)N[C@H]4O [UCN-01]
drug sensitivity score [1]: 22.2
drug sensitivity score [3, 11]: 21.2
drug sensitivity score [3, 12]: 21.5
drug sensitivity score [4]: 24
drug sensitivity score [5, 11]: 24.7
drug sensitivity score [5, 12]: 15.2
drug sensitivity score [6]: 28.4
drug sensitivity score [7, 11]: 12.3
drug sensitivity score [7, 12]: 16.2
drug sensitivity score [8]: 26.5
drug sensitivity score [9]: 29.6
drug sensitivity score [10]: 26.4

CC(C)Nc1cc(-c2c[nH]c(C(=O)N[C@H](CO)c3cccc(Cl)c3)c2)c(Cl)cn1 [Ulixertinib]
drug sensitivity score [1]: 6.4
drug sensitivity score [3, 11]: 2.8
drug sensitivity score [3, 12]: 6.8
drug sensitivity score [4]: 12.3
drug sensitivity score [5, 11]: 7.3
drug sensitivity score [5, 12]: 5
drug sensitivity score [6]: 12
drug sensitivity score [7, 11]: 10.2
drug sensitivity score [7, 12]: 3.3
drug sensitivity score [8]: 0.15
drug sensitivity score [9]: 14.3
drug sensitivity score [10]: 13.1

Cn1ncc(Cl)c1-c1cc(C(=O)N[C@H](CN)Cc2ccc(F)c(F)c2)oc1Cl [Uprosertib]
drug sensitivity score [1]: < 0
drug sensitivity score [3, 11]: 0.6
drug sensitivity score [3, 12]: 0.2
drug sensitivity score [4]: 6.8
drug sensitivity score [5, 11]: < 0
drug sensitivity score [5, 12]: 2.5
drug sensitivity score [6]: 6.5
drug sensitivity score [7, 11]: 1.55
drug sensitivity score [7, 12]: < 0
drug sensitivity score [8]: 1.9
drug sensitivity score [9]: 8.9
drug sensitivity score [10]: 5

C=CC(=O)N1CC/C(=C\c2ccc(F)c([N+](=O)[O-])c2)C(=O)/C(=C/c2ccc(F)c([N+](=O)[O-])c2)C1 [VLX1570]
drug sensitivity score [1]: 18.5
drug sensitivity score [3, 11]: 25.9
drug sensitivity score [3, 12]: 15.3
drug sensitivity score [4]: 19.6
drug sensitivity score [5, 11]: 23.2
drug sensitivity score [5, 12]: 19.4
drug sensitivity score [6]: 20.5
drug sensitivity score [7, 11]: 23.4
drug sensitivity score [7, 12]: 16.4
drug sensitivity score [8]: 12.1
drug sensitivity score [9]: 22.3
drug sensitivity score [10]: 16.9

— the supplement of paper PMC9386025
